Measured values: paper PMC8258697 (The Journal of Biological Chemistry, 2021)
Positions count from the first letter of the chain named.

Columns and labels:
[1] = target: T1, PPARγ LBD (Homo sapiens, UniProt P37231); assay: Monomer cofactor recruitment HTRF assay: CBP-1 recruitment by isolated sGFP-PPARγ LBD; type: biochemical; conditions: titrated alone, or constant 10 μM against titrated rosiglitazone
T1 construct: His10-tag with TEV site (N, cleaved yes); made in house; host or cells: E. coli T7 express (co-expressed with GroEL/ES)
T1 sequence (P37231 234-505): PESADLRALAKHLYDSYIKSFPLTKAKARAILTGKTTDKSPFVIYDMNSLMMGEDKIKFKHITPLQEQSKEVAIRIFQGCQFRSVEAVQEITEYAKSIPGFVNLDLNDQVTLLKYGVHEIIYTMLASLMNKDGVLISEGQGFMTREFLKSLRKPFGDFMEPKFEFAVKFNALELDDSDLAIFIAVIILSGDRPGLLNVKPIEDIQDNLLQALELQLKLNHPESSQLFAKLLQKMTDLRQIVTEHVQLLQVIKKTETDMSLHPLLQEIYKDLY

[2] = target: T2, PPARγ:RXRα heterodimer (Homo sapiens, UniProt P19793+P37231); assay: PPARγ:RXRα heterodimer formation HTRF assay, sGFP-RXRα LBD titrated against biotinylated PPARγ LBD coupled to Tb-SA; type: binding; conditions: 10 μM ligand compared with no ligand
T2 construct: His10-tag with TEV site (N, cleaved yes); made in house; host or cells: E. coli T7 express (co-expressed with GroEL/ES)
T2 sequence (P37231 234-505): T1 sequence (P37231 234-505)
T2 sequence (P19793 226-462): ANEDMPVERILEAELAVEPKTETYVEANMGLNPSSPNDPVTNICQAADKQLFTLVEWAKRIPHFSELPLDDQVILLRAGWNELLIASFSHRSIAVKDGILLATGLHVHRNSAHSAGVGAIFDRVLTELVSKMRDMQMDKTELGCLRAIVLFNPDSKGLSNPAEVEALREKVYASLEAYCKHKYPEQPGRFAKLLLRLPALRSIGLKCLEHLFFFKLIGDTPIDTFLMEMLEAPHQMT

[3] = target: T3, RXRα LBD total mutant (Homo sapiens, UniProt P19793, E453R/F450Y/K284E/V280T/V298T); assay: Coactivator recruitment HTRF assay on isolated RXRα LBD total mutant (SRC1-2 peptide); type: biochemical; conditions: 100 nM sGFP-RXRα LBD total mutant
T3 construct: His10-tag with TEV site (N, cleaved yes); made in house; host or cells: E. coli T7 express (co-expressed with GroEL/ES)
T3 sequence (P19793 226-462 V280T/K284E/V298T/F450Y/E453R): T2 sequence (P19793 226-462) with V55T, K59E, V73T, F225Y, E228R

[4] = target: T4, RXRα LBD mutant (Homo sapiens, UniProt P19793, E453R/F450Y/K284E/V280T/V298T); assay: NCOR1 corepressor displacement HTRF assay on sGFP-RXRα mutant LBD; type: biochemical; conditions: 100 nM sGFP-RXRα mutant LBD, 12 nM NCOR1 ID2
T4 construct: His10-tag with TEV site (N, cleaved yes); made in house; host or cells: E. coli T7 express (co-expressed with GroEL/ES)
T4 sequence (P19793 226-462 V280T/K284E/V298T/F450Y/E453R): T2 sequence (P19793 226-462) with V55T, K59E, V73T, F225Y, E228R

[5] = target: T5, Gal4-RXRα total mutant (Homo sapiens, UniProt P19793, E453R/F450Y/K284E/V280T/V298T); assay: Gal4-RXRα total mutant / VP16-SRC1-2 hybrid reporter gene assay in HEK293T cells
T5 sequence (P19793 225-462 V280T/K284E/V298T/F450Y/E453R): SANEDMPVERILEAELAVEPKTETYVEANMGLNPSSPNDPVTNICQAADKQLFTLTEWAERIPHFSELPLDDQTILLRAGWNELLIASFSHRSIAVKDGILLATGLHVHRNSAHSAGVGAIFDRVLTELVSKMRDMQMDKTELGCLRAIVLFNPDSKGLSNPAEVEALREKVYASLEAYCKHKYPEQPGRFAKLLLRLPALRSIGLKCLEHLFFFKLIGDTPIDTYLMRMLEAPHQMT

[6] = target: T6, Gal4-RXRα wildtype (Homo sapiens, UniProt P19793); assay: Gal4-RXRα wildtype / VP16-SRC1-2 hybrid reporter gene assay in HEK293T cells; conditions: Gal4-RXRα with VP16-SRC1
T6 sequence (P19793 225-462): T5 sequence (P19793 225-462 V280T/K284E/V298T/F450Y/E453R) with T56V, E60K, T74V, Y226F, R229E
T6 sequence (Q15788 676-701 C676S partner): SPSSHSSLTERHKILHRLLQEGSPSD

SMILES: CC1(C)CCC(C)(C)c2cc(C3(c4ccc(C(=O)O)cc4)OCCO3)ccc21 [SR11237]
- effect on CBP-1 recruitment by isolated PPARγ LBD [1]: neither activated recruitment of CBP-1 by PPARγ nor impaired rosiglitazone-mediated recruitment
- effect on PPARγ:RXRα heterodimer formation [2]: significant stabilizing effect
- stimulation of SRC1-2 coactivator recruitment [3]: no stimulation of coactivator recruitment was observed
- effect on NCOR1 corepressor binding [4]: Agonist dependent displacement of NCOR1
- transactivation of reporter gene expression ([5]; RXRα mutant, compared with DMSO control): substantial increase in transactivation
- transactivation by the RXRα mutant in comparison with RXRα wt ([5]; at ≥ 0.1 μM SR11237): markedly reduced
- transactivation of reporter gene expression [6]: substantial increase in transactivation
